Test results taken from patent US7993884B2, “Beta-xylosidase for conversion of plant cell wall carbohydrates to simple sugars” (The United States of America as represented by the …, priority 2006, dated 2011).
Residue numbers refer to the chain shown, from its start. Numbers in names are those of the source. Where “and” joins values, the source holds several entries; their conditions need not be identical. Equal values may be shown once. Read-outs that look alike come from different tables or passages of the source.

Columns and labels:
[1] = biological target: T1, SXA (Selenomonas ruminantium, UniProt O52575); assay: SXA-catalyzed hydrolysis of 4NP-glycoside substrates, initial rates (Methods A and B); type: biochemical; settings: for Relative Rate: 5 mM 4NP glycoside, 100 mM succinate-NaOH, pH 5.3, 25° C., Method A, initial rate relative to 4NPX;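 for all read-outs here: initial rates from 4-nitrophenol release, tracked by absorbance over roughly 0.3 min and converted using product-minus-substrate extinction differences, in 1 mL mixtures started by enzyme addition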
[2] = biological target: T2, Selenomonas ruminantium GA192 β-D-xylosidase (SXA), wild type, SEQ ID NO: 2 (Pseudoselenomonas ruminantium, UniProt O52575); assay: Steady-state kinetics of SXA with 4NPX2, A2 and X2-X6 by HPLC (Example 1)
[3] = biological target: T1, SXA; settings: for Km: 100 mM succinate-NaOH, pH 5.3, 25° C. (Example 1)
[4] = biological target: T1, SXA; settings: for Km / kcat: 100 mM succinate-NaOH, improved quench (Example 3); for Km / kcat / kcat lower than previous determination (Example 1) / kcat/Km lower than previous determination (Example 1): pH 5.3, 25° C.; for factor by which kcat of SXA is higher than that of the Bacillus pumilus enzyme: SXA pH 5.3, 25° C. vs B. pumilus pH 7.15, 25° C.
[5] = biological target: T2, Selenomonas ruminantium GA192 β-D-xylosidase (SXA), wild type, SEQ ID NO: 2; assay: Steady-state kinetics of SXA with X2-X6, improved quenching, HPLC (Example 3); settings: for factor by which kcat is higher than that of the Bacillus pumilus enzyme: SXA pH 5.3 vs B. pumilus pH 7.15, 25° C
[6] = substrate: O=[N+]([O-])c1ccc(O[C@@H]2OC[C@@H](O)[C@H](O)[C@H]2O)cc1; assay: purified protein, by the assay type; settings: other: 100 mM succinate-NaOH, pH 5.3, 25° C, Method A
[7] = substrate: O=[N+]([O-])c1ccc(O[C@@H]2O[C@@H](CO)[C@H](O)[C@H]2O)cc1; assay: purified protein, by the assay type; settings: other: 100 mM succinate-NaOH, pH 5.3, 25° C, Method A
[8] = 100 mM succinate-NaOH, pH 5.3, 25° C
[9] = pH 5.3, 25° C (Example 1), approximate
[10] = hydrolysis of X6, pH 5.30, 25° C.
[11] = pH 5.3, 25° C (improved technique), approximate

Molecule: O=[N+]([O-])c1ccc(O[C@@H]2OC[C@H](O)[C@H](O)[C@H]2O)cc1 [4-Nitrophenyl-α-L-arabinopyranoside]
- Relative Rate [1]: <10^−6

Molecule: OC[C@@H]1O[C@@H](OC[C@@H]2OC(O)[C@H](O)[C@H]2O)[C@H](O)[C@H]1O (stereo partly drawn) [A2, 1,5-α-L-arabinobiose]
- factor by which kcat is reduced vs X2 [2]: 5600 fold
- kcat [2, 8]: 0.074 ± 0.003 s⁻¹
- kcat factor between 4NPA and A2 ([2]; 4NPA larger / A2 reduced): 36 fold
- relative kcat value ([2]; pH 5.3, 25° C, A2 = 1): 1
- Km [3]: 1200 ± 100 µM
- factor by which kcat is reduced in comparison to 4NPA ([3]; pH 5.3, 25° C.): 36
- factor by which kcat is reduced in comparison to X2 ([3]; pH 5.3, 25° C.): 5600
- relative kcat values ([3]; pH 5.3 and 25° C., relative to A2): 1

Molecule: C[C@H]1O[C@@H](Oc2ccc([N+](=O)[O-])cc2)[C@H](O)[C@@H](O)[C@H]1O [4-Nitrophenyl-β-D-fucopyranoside]
- Relative Rate [1]: <10^−6

Molecule: O=[N+]([O-])c1ccc(O[C@@H]2O[C@H](CO)[C@H](O)[C@H](O)[C@H]2O)cc1 [4-Nitrophenyl-β-D-galactopyranoside]
- Relative Rate [1]: <10^−6

Molecule: C[C@@H]1O[C@@H](Oc2ccc([N+](=O)[O-])cc2)[C@H](O)[C@H](O)[C@H]1O [4-Nitrophenyl-α-L-rhamnopyranoside]
- Relative Rate [1]: <10^−6

Molecule: O=[N+]([O-])c1ccc(O[C@@H]2O[C@H](CO)[C@@H](O)[C@H](O)[C@H]2O)cc1 [4-Nitrophenyl-β-D-glucopyranoside]
- Relative Rate [1]: <10^−6

Molecule: O=[N+]([O-])c1ccc(O[C@H]2O[C@H](CO)[C@@H](O)[C@H](O)[C@H]2O)cc1 [4-Nitrophenyl-α D-glucopyranoside]
- Relative Rate [1]: <10^−6

Molecule: OC1OC[C@@H](O[C@@H]2OC[C@@H](O[C@@H]3OC[C@@H](O[C@@H]4OC[C@@H](O)[C@H](O)[C@H]4O)[C@H](O)[C@H]3O)[C@H](O)[C@H]2O)[C@H](O)[C@H]1O (stereo partly drawn) [X4, 1,4-β-D-xylotetraose]
- Km [4]: 2750 ± 230 µM
- kcat [4]: approximately 91.6 s^−1
- factor by which kcat of SXA is higher than that of the Bacillus pumilus enzyme [4]: 31
- kcat lower than previous determination (Example 1) [4]: 39%
- kcat/Km lower than previous determination (Example 1) [4]: 12%
- kcat [2, 8]: 150 s⁻¹ and 150 ± 5 s⁻¹
- kcat [2, 9]: approximately 150 sec^−1
- Km [3]: 4000 µM
- time of peak height of intermediate product, observed [3, 10]: 8260 s
- kcat [5, 8]: 91.6 ± 2.3 s⁻¹
- factor by which kcat is higher than that of the Bacillus pumilus enzyme [5]: 31
- kcat [5, 11]: approximately 91.6 sec^−1

Molecule: OC1OC[C@@H](O[C@@H]2OC[C@@H](O[C@@H]3OC[C@@H](O[C@@H]4OC[C@@H](O[C@@H]5OC[C@@H](O[C@@H]6OC[C@@H](O)[C@H](O)[C@H]6O)[C@H](O)[C@H]5O)[C@H](O)[C@H]4O)[C@H](O)[C@H]3O)[C@H](O)[C@H]2O)[C@H](O)[C@H]1O (stereo partly drawn) [X6, 1,4-β-D-xylohexaose]
- Km [4]: 3120 ± 210 µM
- kcat [4]: approximately 81.5 s^−1
- factor by which kcat of SXA is higher than that of the Bacillus pumilus enzyme [4]: 27
- kcat lower than previous determination (Example 1) [4]: 15%
- kcat/Km lower than previous determination (Example 1) [4]: 25%
- kcat [2, 8]: 96 s⁻¹ and 96 ± 7 s⁻¹
- Km [3]: 2700 µM
- kcat [5, 8]: 81.5 ± 2.0 s⁻¹
- factor by which kcat is higher than that of the Bacillus pumilus enzyme [5]: 27
- kcat [5, 11]: approximately 81.5 sec^−1

Molecule: O=[N+]([O-])c1ccc(O[C@H]2O[C@H](CO)[C@@H](O)[C@H](O)[C@@H]2O)cc1 [4-Nitrophenyl-α-D-mannopyranoside]
- Relative Rate [1]: <10^−6

Molecule: O=[N+]([O-])c1ccc(O[C@H]2OC[C@@H](O)[C@H](O)[C@H]2O)cc1 [4-Nitrophenyl-α-D-xylopyranoside]
- Relative Rate [1]: <10^−6

Molecule: OC1OC[C@@H](O[C@@H]2OC[C@@H](O[C@@H]3OC[C@@H](O[C@@H]4OC[C@@H](O[C@@H]5OC[C@@H](O)[C@H](O)[C@H]5O)[C@H](O)[C@H]4O)[C@H](O)[C@H]3O)[C@H](O)[C@H]2O)[C@H](O)[C@H]1O (stereo partly drawn) [X5, 1,4-β-D-xylopentaose]
- Km [4]: 2860 ± 380 µM
- kcat [4]: approximately 77.2 s^−1
- factor by which kcat of SXA is higher than that of the Bacillus pumilus enzyme [4]: 20
- kcat lower than previous determination (Example 1) [4]: 49%
- kcat/Km lower than previous determination (Example 1) [4]: 34%
- kcat [2, 8]: 150 s⁻¹ and 150 ± 15 s⁻¹
- kcat [2, 9]: approximately 150 sec^−1
- Km [3]: 3700 µM
- time of peak height of intermediate product, observed [3, 10]: 3138 s
- kcat [5, 8]: 77.2 ± 3.6 s⁻¹
- factor by which kcat is higher than that of the Bacillus pumilus enzyme [5]: 20
- kcat [5, 11]: approximately 77.2 sec^−1

Molecule: O=[N+]([O-])c1ccc(O[C@@H]2O[C@H](CO)[C@@H](O)[C@H](O)[C@@H]2O)cc1 [4-Nitrophenyl-β-D-mannopyranoside]
- Relative Rate [1]: <10^−6

Molecule: C[C@@H]1O[C@H](Oc2ccc([N+](=O)[O-])cc2)[C@@H](O)[C@H](O)[C@@H]1O [4-Nitrophenyl-β-fucopyranoside]
- Relative Rate [1]: <10^−6

Molecule: OC1OC[C@@H](O[C@@H]2OC[C@@H](O[C@@H]3OC[C@@H](O)[C@H](O)[C@H]3O)[C@H](O)[C@H]2O)[C@H](O)[C@H]1O (stereo partly drawn) [X3, 1,4-β-D-xylotriose]
- pH-independent kcat [4]: 98.0±2.3
- Km [4]: 2120 ± 100 µM
- kcat [4]: approximately 95.1 s^−1
- pKa1 of kcat versus pH ([4]; Eq. 6, I=0.3 M, 25° C.): 3.21
- pKa1 of kcat/Km versus pH ([4]; Eq. 6, I=0.3 M, 25° C.): 4.80±0.06
- pKa2 of kcat versus pH ([4]; Eq. 6, I=0.3 M, 25° C.): 7.53±0.06
- pKa2 of kcat/Km versus pH ([4]; Eq. 6, I=0.3 M, 25° C.): 7.30±0.04
- pKa1 of kcat versus pH ([4]; Eq. 6, I=0.3 M, 25° C., listed as 1,4-β-D-xylotriose): 3.21±0.27
- pKa1 of 1/Km versus pH ([4]; Eq. 7, I=0.3 M, 25° C.): 4.76±0.05
- pKa2 of 1/Km versus pH ([4]; Eq. 7, I=0.3 M, 25° C.): 7.76±0.14
- factor by which kcat of SXA is higher than that of the Bacillus pumilus enzyme [4]: 32
- lower affinity of dianionic SXA (D14^−E186^−) than monoanionic SXA (D14^−E186^H) ([4]; from pH dependencies of 1/Km): 3.1 fold and 3 fold
- pH-independent kcat/Km ([4]; kcat/Km versus pH, Eq. 6, I=0.3 M, 25° C. (FIG. 20)): 58.9±3.3 mM^−1s^−1
- kcat lower than previous determination (Example 1) [4]: 45%
- kcat/Km lower than previous determination (Example 1) [4]: 1%
- kcat [2, 8]: 172 s⁻¹ and 172 ± 14 s⁻¹
- Km [3]: 3800 µM
- time of peak height of intermediate product, observed ([3]; hydrolysis of X4, pH 5.30, 25° C.): 4130 s
- time of peak height of intermediate product, observed [3, 10]: 10822 s
- kcat [5, 8]: 95.1 ± 1.5 s⁻¹
- factor by which kcat is higher than that of the Bacillus pumilus enzyme [5]: 32
- affinity of dianionic SXA (D14^−E186^−), lower than that of monoanionic SXA (D14^−E186^H) ([5]; from pH dependence of 1/Km): 3.1 fold and 3 fold
- kcat [5, 11]: approximately 95.1 sec^−1
- pH-independent kcat ([5]; pH profile, I=0.3 M, 25° C): 98.0±2.3

Molecule: C[C@@H]1O[C@@H](Oc2ccc([N+](=O)[O-])cc2)[C@@H](O)[C@H](O)[C@@H]1O [4-Nitrophenyl-α-L-fucopyranoside]
- Relative Rate [1]: <10^−6

Molecule: O=[N+]([O-])c1ccc(O[C@H]2O[C@H](CO)[C@H](O)[C@H](O)[C@H]2O)cc1 [4-Nitrophenyl-α-D-galactopyranoside]
- Relative Rate [1]: <10^−6

Molecule: O=[N+]([O-])c1ccc(O[C@H]2OC[C@H](O)[C@H](O)[C@H]2O)cc1 [4-Nitrophenyl-β-L-arabinopyranoside]
- Relative Rate [1]: <10^−6
- rate relative to that of 4NPX, first inspection ([1]; reaction conditions of Table 2, later attributed to a contaminant): less than 0.1%

B1: Selenomonas ruminantium GA192 β-D-xylosidase (SXA, parent SEQ ID NO: 2) variant E186A (Pseudoselenomonas ruminantium; E186A) (protein)
chain: MNIQNPVLKGFNPDPSIVRAGDDYYIATSTFEWFPGVQIHHSKDLVHWHLVAHPLSTTEFLDMKGNPDSGGIWAPDLSYADGKFWLIYTDVKVVDGMWKDCHNYLTTAEDIKGPWSKPILLNGAGFDASLFHDPSGKKYLVNMYWDQRVYHHNFYGIALQEYSVAEEKLIGKPEIIYKGTDIAYTAGPHLYYINDMYYLMTAEGGTTYQHSETIARSKTIHGPYEIQPDYPLLSAWKEVHNPLQKCGHASLVETQNGQWYLAHLTGRPLPAPAGFPSREREQHAFCPLGRETAIQKIEWQDGWPVVVGGQQGSLEVEAPDLPQQEWAPTYEERDDFDKDTLNINFQTLRIPFSEHLGSLTARPGFLRLYGRESLQSKFTQAHIARRWQSFNFDAGTSVEFSPNSFQQMAGLTCYYNTENWSSIHVTWNEEKGRIIDLVTADNGTFSMPLAGAEIPIPDEVKTVHFKVSVRGRIYQYAYSFDGETFHTLPIELPSWKLSDDYVRGGGFFTGAFVGINAIDITGTALPADFDYFTYKELD
- Km [6]: 1100 ± 50 µM
- Km [7]: 1320 ± 110 µM

B2: Selenomonas ruminantium GA192 β-D-xylosidase (SXA, parent SEQ ID NO: 2) variant R290A (Pseudoselenomonas ruminantium; R290A) (protein)
chain: B1 chain with A186E, R290A
- Km ([6]; not well determined (highest 4NPX 5 mM)): 50300 ± 8800 µM

B3: Selenomonas ruminantium GA192 β-D-xylosidase (SXA, parent SEQ ID NO: 2) variant D127A (Pseudoselenomonas ruminantium; D127A) (protein)
chain: B1 chain with D127A, A186E
- Km [6]: 881 ± 59 µM

B4: Selenomonas ruminantium GA192 β-D-xylosidase (SXA, parent SEQ ID NO: 2) variant H248A (Pseudoselenomonas ruminantium; H248A) (protein)
chain: B1 chain with A186E, H248A
- Km [6]: 1050 ± 70 µM

B5: Selenomonas ruminantium GA192 β-D-xylosidase (SXA, parent SEQ ID NO: 2) variant D14A (Pseudoselenomonas ruminantium; D14A) (protein)
chain: B1 chain with D14A, A186E
- Km [6]: 777 ± 36 µM
- Km [7]: 771 ± 29 µM
